Columns and labels:
Experiment in all cases: relative viability (nuclei count vs DMSO), 5 days (fraction); higher = more cells survive
AZD8055 + Pictilisib = compound: COc1ccc(-c2ccc3c(N4CCOC[C@@H]4C)nc(N4CCOC[C@@H]4C)nc3n2)cc1CO [AZD8055] + CS(=O)(=O)N1CCN(Cc2cc3nc(-c4cccc5[nH]ncc45)nc(N4CCOCC4)c3s2)CC1 [Pictilisib] (partner 1 µM)
How it was run: (§1)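 For relative viability, nuclei counts in treated wells were divided by those in vehicle wells. Lung cancer cell lines had been pin-tool dosed in 1536-well plates the day after seeding and cultured for 5 days, then fixed and stained in one step (final 0.05% Triton X-100, 1% formaldehyde, 1 ug/ml Hoechst) and imaged at 4×. Doses were one drug alone or a fixed anchor-drug dose plus five library-drug doses (not always all listed) in √10 steps, and values are duplicate-plate medians.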

AZD8055 + Crizotinib = compound: COc1ccc(-c2ccc3c(N4CCOC[C@@H]4C)nc(N4CCOC[C@@H]4C)nc3n2)cc1CO [AZD8055] + C[C@@H](Oc1cc(-c2cnn(C3CCNCC3)c2)cnc1N)c1c(Cl)ccc(F)c1Cl [Crizotinib] (partner 1 µM)
How it was run: as §1

AZD8055 + Alpelisib = compound: COc1ccc(-c2ccc3c(N4CCOC[C@@H]4C)nc(N4CCOC[C@@H]4C)nc3n2)cc1CO [AZD8055] + Cc1nc(NC(=O)N2CCC[C@H]2C(N)=O)sc1-c1ccnc(C(C)(C)C(F)(F)F)c1 [Alpelisib] (partner 2 µM)
How it was run: as §1

AZD8055 + Lapatinib = compound: COc1ccc(-c2ccc3c(N4CCOC[C@@H]4C)nc(N4CCOC[C@@H]4C)nc3n2)cc1CO [AZD8055] + CS(=O)(=O)CCNCc1ccc(-c2ccc3ncnc(Nc4ccc(OCc5cccc(F)c5)c(Cl)c4)c3c2)o1 [Lapatinib] (partner 2 µM)
How it was run: as §1

AZD8055 + Bortezomib = compound: COc1ccc(-c2ccc3c(N4CCOC[C@@H]4C)nc(N4CCOC[C@@H]4C)nc3n2)cc1CO [AZD8055] + CC(C)C[C@H](NC(=O)[C@H](Cc1ccccc1)NC(=O)c1cnccn1)B(O)O [Bortezomib] (partner 0.002 µM)
How it was run: as §1

AZD8055 + Olaparib = compound: COc1ccc(-c2ccc3c(N4CCOC[C@@H]4C)nc(N4CCOC[C@@H]4C)nc3n2)cc1CO [AZD8055] + O=C(c1cc(Cc2n[nH]c(=O)c3ccccc23)ccc1F)N1CCN(C(=O)C2CC2)CC1 [Olaparib] (partner 8 µM)
How it was run: as §1

AZD8055 + Navitoclax = compound: COc1ccc(-c2ccc3c(N4CCOC[C@@H]4C)nc(N4CCOC[C@@H]4C)nc3n2)cc1CO [AZD8055] + CC1(C)CCC(c2ccc(Cl)cc2)=C(CN2CCN(c3ccc(C(=O)NS(=O)(=O)c4ccc(N[C@H](CCN5CCOCC5)CSc5ccccc5)c(S(=O)(=O)C(F)(F)F)c4)cc3)CC2)C1 [Navitoclax] (partner 0.5 µM)
How it was run: as §1

AZD8055 + Foretinib = compound: COc1ccc(-c2ccc3c(N4CCOC[C@@H]4C)nc(N4CCOC[C@@H]4C)nc3n2)cc1CO [AZD8055] + COc1cc2c(Oc3ccc(NC(=O)C4(C(=O)Nc5ccc(F)cc5)CC4)cc3F)ccnc2cc1OCCCN1CCOCC1 [Foretinib] (partner 0.25 µM)
How it was run: as §1

AZD8055 + Linsitinib = compound: COc1ccc(-c2ccc3c(N4CCOC[C@@H]4C)nc(N4CCOC[C@@H]4C)nc3n2)cc1CO [AZD8055] + C[C@]1(O)C[C@@H](c2nc(-c3ccc4ccc(-c5ccccc5)nc4c3)c3c(N)nccn32)C1 [Linsitinib] (partner 1 µM)
How it was run: as §1

AZD8055 = compound: COc1ccc(-c2ccc3c(N4CCOC[C@@H]4C)nc(N4CCOC[C@@H]4C)nc3n2)cc1CO [AZD8055]
How it was run: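 Viability was read as treated-well nuclei divided by vehicle-well nuclei, using the median across plates. Lung cancer cell lines in 1536-well plates were kept overnight at 37 °C, pinned with five √10-spaced library-drug doses, and after 5 days were Hoechst-stained, imaged at 4× and counted in MetaXpress. Plates passed only with control CV below 25% and at least one doubling.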

AZD8055 + Luminespib = compound: COc1ccc(-c2ccc3c(N4CCOC[C@@H]4C)nc(N4CCOC[C@@H]4C)nc3n2)cc1CO [AZD8055] + CCNC(=O)c1noc(-c2cc(C(C)C)c(O)cc2O)c1-c1ccc(CN2CCOCC2)cc1 [Luminespib] (partner 0.01 µM)
How it was run: as §1

AZD8055 + Dasatinib = compound: COc1ccc(-c2ccc3c(N4CCOC[C@@H]4C)nc(N4CCOC[C@@H]4C)nc3n2)cc1CO [AZD8055] + Cc1nc(Nc2ncc(C(=O)Nc3c(C)cccc3Cl)s2)cc(N2CCN(CCO)CC2)n1 [Dasatinib] (partner 0.075 µM)
How it was run: as §1

AZD8055 + Phenformin = compound: COc1ccc(-c2ccc3c(N4CCOC[C@@H]4C)nc(N4CCOC[C@@H]4C)nc3n2)cc1CO [AZD8055] + N=C(N)NC(=N)NCCc1ccccc1 [Phenformin] (partner 250 µM)
How it was run: as §1

AZD8055 + OSI-027 = compound: COc1ccc(-c2ccc3c(N4CCOC[C@@H]4C)nc(N4CCOC[C@@H]4C)nc3n2)cc1CO [AZD8055] + COc1cccc2cc(-c3nc([C@H]4CC[C@H](C(=O)O)CC4)n4ncnc(N)c34)[nH]c12 [OSI-027] (partner 0.5 µM)
How it was run: as §1

AZD8055 + Tozasertib = compound: COc1ccc(-c2ccc3c(N4CCOC[C@@H]4C)nc(N4CCOC[C@@H]4C)nc3n2)cc1CO [AZD8055] + Cc1cc(Nc2cc(N3CCN(C)CC3)nc(Sc3ccc(NC(=O)C4CC4)cc3)n2)n[nH]1 [Tozasertib] (partner 0.1 µM)
How it was run: as §1

NCI-H1299 gave a relative viability (AZD8055 + Pictilisib; first compound 0.01 µM) of 0.635, a relative viability (AZD8055 + Pictilisib; first compound 0.03162 µM) of 0.572 and a relative viability (AZD8055 + Pictilisib; first compound 0.1 µM) of 0.363. The relative viability (AZD8055 + Pictilisib; first compound 0.3162 µM) was 0.24, the relative viability (AZD8055 + Pictilisib; first compound 1 µM) was 0.233 and the relative viability (AZD8055 + Crizotinib; first compound 0.01 µM) was 0.998. It also gave a relative viability (AZD8055 + Crizotinib; first compound 0.03162 µM) of 0.995, a relative viability (AZD8055 + Crizotinib; first compound 0.1 µM) of 0.968 and a relative viability (AZD8055 + Crizotinib; first compound 0.3162 µM) of 0.891. The relative viability (AZD8055 + Crizotinib; first compound 1 µM) was 0.51, the relative viability (AZD8055 + Alpelisib; first compound 0.01 µM) was 1.17 and the relative viability (AZD8055 + Alpelisib; first compound 0.03162 µM) was 1.04. The relative viability (AZD8055 + Alpelisib; first compound 0.1 µM) was 1.06, the relative viability (AZD8055 + Alpelisib; first compound 0.3162 µM) was 0.628 and the relative viability (AZD8055 + Alpelisib; first compound 1 µM) was 0.468. It also gave a relative viability (AZD8055 + Lapatinib; first compound 0.01 µM) of 0.974, a relative viability (AZD8055 + Lapatinib; first compound 0.03162 µM) of 1.07 and a relative viability (AZD8055 + Lapatinib; first compound 0.1 µM) of 0.98. It also gave a relative viability (AZD8055 + Lapatinib; first compound 0.3162 µM) of 0.758, a relative viability (AZD8055 + Lapatinib; first compound 1 µM) of 0.439 and a relative viability (AZD8055 + Bortezomib; first compound 0.01 µM) of 1.08. For the same cell line, the relative viability (AZD8055 + Bortezomib; first compound 0.03162 µM) was 1.05, the relative viability (AZD8055 + Bortezomib; first compound 0.1 µM) was 1.11 and the relative viability (AZD8055 + Bortezomib; first compound 0.3162 µM) was 0.931. For the same cell line, the relative viability (AZD8055 + Bortezomib; first compound 1 µM) was 0.576, the relative viability (AZD8055 + Olaparib; first compound 0.01 µM) was 1.06 and the relative viability (AZD8055 + Olaparib; first compound 0.03162 µM) was 1.03. It also gave a relative viability (AZD8055 + Olaparib; first compound 0.1 µM) of 0.889, a relative viability (AZD8055 + Olaparib; first compound 0.3162 µM) of 0.574 and a relative viability (AZD8055 + Olaparib; first compound 1 µM) of 0.353. For the same cell line, the relative viability (AZD8055 + Navitoclax; first compound 0.01 µM) was 1.05, the relative viability (AZD8055 + Navitoclax; first compound 0.03162 µM) was 1.08 and the relative viability (AZD8055 + Navitoclax; first compound 0.1 µM) was 1.02. For the same cell line, the relative viability (AZD8055 + Navitoclax; first compound 0.3162 µM) was 0.939, the relative viability (AZD8055 + Navitoclax; first compound 1 µM) was 0.67 and the relative viability (AZD8055 + Foretinib; first compound 0.01 µM) was 1.19. The relative viability (AZD8055 + Foretinib; first compound 0.03162 µM) was 1.18, the relative viability (AZD8055 + Foretinib; first compound 0.1 µM) was 1.14 and the relative viability (AZD8055 + Foretinib; first compound 0.3162 µM) was 0.863. It also gave a relative viability (AZD8055 + Foretinib; first compound 1 µM) of 0.528, a relative viability (AZD8055 + Linsitinib; first compound 0.01 µM) of 1.08 and a relative viability (AZD8055 + Linsitinib; first compound 0.03162 µM) of 0.948. It also gave a relative viability (AZD8055 + Linsitinib; first compound 0.1 µM) of 0.798, a relative viability (AZD8055 + Linsitinib; first compound 0.3162 µM) of 0.436 and a relative viability (AZD8055 + Linsitinib; first compound 1 µM) of 0.295. For the same cell line, the relative viability (AZD8055; 0.01 µM) was 1.04, the relative viability (AZD8055; 0.03162 µM) was 1.06 and the relative viability (AZD8055; 0.1 µM) was 1.04. For the same cell line, the relative viability (AZD8055; 0.3162 µM) was 0.807 and the relative viability (AZD8055; 1 µM) was 0.415.
In the case of NCI-H1623, the relative viability (AZD8055 + Luminespib; first compound 0.01 µM) is reported as 0.483, the relative viability (AZD8055 + Luminespib; first compound 0.03162 µM) is reported as 0.434 and the relative viability (AZD8055 + Luminespib; first compound 0.1 µM) is reported as 0.343. For the same cell line, the relative viability (AZD8055 + Luminespib; first compound 0.3162 µM) was 0.347, the relative viability (AZD8055 + Luminespib; first compound 1 µM) was 0.278 and the relative viability (AZD8055 + Dasatinib; first compound 0.01 µM) was 0.545. It also gave a relative viability (AZD8055 + Dasatinib; first compound 0.03162 µM) of 0.584, a relative viability (AZD8055 + Dasatinib; first compound 0.1 µM) of 0.412 and a relative viability (AZD8055 + Dasatinib; first compound 0.3162 µM) of 0.29. For the same cell line, the relative viability (AZD8055 + Dasatinib; first compound 1 µM) was 0.234, the relative viability (AZD8055 + Phenformin; first compound 0.01 µM) was 0.586 and the relative viability (AZD8055 + Phenformin; first compound 0.03162 µM) was 0.597. The relative viability (AZD8055 + Phenformin; first compound 0.1 µM) was 0.521, the relative viability (AZD8055 + Phenformin; first compound 0.3162 µM) was 0.324 and the relative viability (AZD8055 + Phenformin; first compound 1 µM) was 0.316. The relative viability (AZD8055 + OSI-027; first compound 0.01 µM) was 0.419, the relative viability (AZD8055 + OSI-027; first compound 0.03162 µM) was 0.521 and the relative viability (AZD8055 + OSI-027; first compound 0.1 µM) was 0.425. It also gave a relative viability (AZD8055 + OSI-027; first compound 0.3162 µM) of 0.411, a relative viability (AZD8055 + OSI-027; first compound 1 µM) of 0.379 and a relative viability (AZD8055 + Foretinib; first compound 0.01 µM) of 0.885. For the same cell line, the relative viability (AZD8055 + Foretinib; first compound 0.03162 µM) was 1.03, the relative viability (AZD8055 + Foretinib; first compound 0.1 µM) was 0.578 and the relative viability (AZD8055 + Foretinib; first compound 0.3162 µM) was 0.438. For the same cell line, the relative viability (AZD8055 + Foretinib; first compound 1 µM) was 0.381, the relative viability (AZD8055 + Tozasertib; first compound 0.01 µM) was 0.46 and the relative viability (AZD8055 + Tozasertib; first compound 0.03162 µM) was 0.47. For the same cell line, the relative viability (AZD8055 + Tozasertib; first compound 0.1 µM) was 0.397, the relative viability (AZD8055 + Tozasertib; first compound 0.3162 µM) was 0.254 and the relative viability (AZD8055 + Tozasertib; first compound 1 µM) was 0.288. The relative viability (AZD8055; 0.01 µM) was 0.916, the relative viability (AZD8055; 0.03162 µM) was 1.03 and the relative viability (AZD8055; 0.1 µM) was 0.79. The relative viability (AZD8055; 0.3162 µM) was 0.469 and the relative viability (AZD8055; 1 µM) was 0.36.
